Data reported in patent US20200231545A1, “CHARGED ION CHANNEL BLOCKERS AND METHODS FOR USE THEREOF” (President and Fellows of Harvard College, priority 2019, published 2020).
Values joined by “and” are separate entries in the source; they are usually repeats but may differ in a detail not shown here. Equal entries are not always repeated.

Columns and labels:
human Nav1.7 channels = target: T1, human Nav1.7 channels (Homo sapiens, UniProt Q15858); assay: Whole-cell patch clamp, use-dependent block of sodium current, compound dialyzed inside cells; assay type: cell-based; settings: 10 micromolar intracellular; stimulation series 0.05 to 10 Hz; HEK293 hNav1.7
T1 construct: expressed in transfected cells
T1 sequence (Q15858 whole entry): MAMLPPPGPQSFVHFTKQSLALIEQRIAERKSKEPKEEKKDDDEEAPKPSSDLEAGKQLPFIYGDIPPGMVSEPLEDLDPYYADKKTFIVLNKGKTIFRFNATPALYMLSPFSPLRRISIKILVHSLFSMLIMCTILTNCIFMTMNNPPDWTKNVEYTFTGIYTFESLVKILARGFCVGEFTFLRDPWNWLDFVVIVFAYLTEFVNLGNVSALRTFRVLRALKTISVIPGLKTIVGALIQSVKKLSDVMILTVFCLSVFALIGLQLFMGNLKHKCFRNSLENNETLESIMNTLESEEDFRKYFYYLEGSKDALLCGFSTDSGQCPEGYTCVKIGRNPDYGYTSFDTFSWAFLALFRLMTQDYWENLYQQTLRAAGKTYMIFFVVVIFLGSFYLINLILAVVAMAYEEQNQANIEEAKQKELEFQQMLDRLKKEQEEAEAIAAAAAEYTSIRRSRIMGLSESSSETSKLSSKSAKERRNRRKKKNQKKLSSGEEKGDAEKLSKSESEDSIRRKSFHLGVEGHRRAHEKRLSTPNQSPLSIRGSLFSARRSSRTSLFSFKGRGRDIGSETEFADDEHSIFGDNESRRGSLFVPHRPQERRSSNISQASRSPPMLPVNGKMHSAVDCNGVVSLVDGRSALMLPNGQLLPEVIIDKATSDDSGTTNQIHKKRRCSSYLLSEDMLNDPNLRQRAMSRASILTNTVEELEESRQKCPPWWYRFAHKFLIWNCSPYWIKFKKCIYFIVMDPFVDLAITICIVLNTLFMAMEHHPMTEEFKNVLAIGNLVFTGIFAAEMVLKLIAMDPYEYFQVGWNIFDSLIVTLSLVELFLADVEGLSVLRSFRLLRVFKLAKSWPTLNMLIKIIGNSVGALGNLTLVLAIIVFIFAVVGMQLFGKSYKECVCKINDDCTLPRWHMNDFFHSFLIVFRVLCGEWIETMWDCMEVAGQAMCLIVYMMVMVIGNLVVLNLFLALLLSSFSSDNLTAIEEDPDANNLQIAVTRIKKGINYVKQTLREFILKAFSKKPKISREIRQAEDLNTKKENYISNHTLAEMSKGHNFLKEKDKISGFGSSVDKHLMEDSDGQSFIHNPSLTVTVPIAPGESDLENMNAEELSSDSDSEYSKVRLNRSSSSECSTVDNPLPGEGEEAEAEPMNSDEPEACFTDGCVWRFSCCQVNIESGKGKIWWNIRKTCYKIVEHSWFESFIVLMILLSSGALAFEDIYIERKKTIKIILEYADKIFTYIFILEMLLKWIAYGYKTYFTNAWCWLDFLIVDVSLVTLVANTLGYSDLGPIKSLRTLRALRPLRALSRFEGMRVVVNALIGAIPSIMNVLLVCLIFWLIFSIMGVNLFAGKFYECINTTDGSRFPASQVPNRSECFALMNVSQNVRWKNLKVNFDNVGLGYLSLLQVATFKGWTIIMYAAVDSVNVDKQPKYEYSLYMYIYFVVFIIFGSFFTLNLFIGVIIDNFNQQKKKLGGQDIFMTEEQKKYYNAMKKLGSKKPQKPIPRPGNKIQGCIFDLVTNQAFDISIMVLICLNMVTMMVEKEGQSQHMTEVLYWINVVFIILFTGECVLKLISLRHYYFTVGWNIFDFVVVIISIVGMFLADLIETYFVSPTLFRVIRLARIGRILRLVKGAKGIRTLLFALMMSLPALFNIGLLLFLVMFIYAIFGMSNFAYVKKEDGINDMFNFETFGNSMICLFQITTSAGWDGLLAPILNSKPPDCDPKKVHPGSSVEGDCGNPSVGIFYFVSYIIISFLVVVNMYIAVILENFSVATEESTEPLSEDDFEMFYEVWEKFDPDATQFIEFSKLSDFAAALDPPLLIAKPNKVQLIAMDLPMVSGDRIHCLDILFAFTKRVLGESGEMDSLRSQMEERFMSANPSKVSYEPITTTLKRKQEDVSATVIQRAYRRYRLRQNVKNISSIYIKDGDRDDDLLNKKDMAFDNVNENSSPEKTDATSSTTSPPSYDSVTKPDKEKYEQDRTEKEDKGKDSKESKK
Protocol: Whole-cell recordings were made of currents carried by voltage-activated sodium channels in HEK293 cells stably expressing human Nav1.7 channels. Recordings were made using patch pipettes with resistances of 2-3.5 MO when filled with internal solution, consisting of 61 mM CsF, 61 mM CsCl, 9 mM NaCl, 1.8 mM MgCl2, 9 mM EGTA, 14 mM creatine phosphate (tris salt), 4 mM MgATP, and 0.3 mM GTP (tris salt), 9 mM HEPES, pH adjusted to 7.2 with CsOH. The shank of the electrode was wrapped with Parafilm in order to reduce capacitance and allow optimal series resistance compensation without oscillation. Seals were obtained and the whole-cell configuration established with cells in Tyrode's solution (155 mM NaCl, 3.5 mM KCl, 1.5 mM CaCl2), 1 mM MgCl2, 10 mM HEPES, 10 mM glucose, pH adjusted to 7.4 with NaOH) with 10 mM TEACl. To ensure complete dialysis with pipette solution containing the test compounds, recordings began after 5 to 10 minutes after establishment of the whole-cell configuration.
Currents were recorded at room temperature (21-23° C.) with an Axopatch 200 amplifier or […] amplifier and filtered at 5-10 kHz with a low-pass Bessel filter. The amplifier was tuned for partial compensation of series resistance (typically 70-80% of a total series resistance of 4-10 MO). Currents were digitized using a Digidata 1322A data acquisition interface controlled by pClamp9 or pClamp10 software (Axon Instruments) and analyzed using programs written in Igor Pro 4.0 (Wavemetrics, Lake Oswego, Oreg.). Currents were corrected for linear capacitative and leak currents determined using 5 mV hyperpolarizations delivered from the resting potential (usually −80 or −100 mV) and then appropriately scaled and subtracted.
Sodium currents were evoked by 30-msec depolarizations from −100 mV to −20 mV. To assay use-dependent block, pulses were delivered at series of increasing rates: 0.05 Hz for 1-min, 0.33 Hz for 1-min, 1 Hz for 1-min, 3 Hz for 1-min, 5 Hz for 30 seconds, 10 Hz for 30 seconds, with 1 minute rest between each series of pulses. […]

[1] = system: citric acid induced cough; assay: Citric acid induced cough in ovalbumin sensitized guinea pigs, inhaled treatment; assay type: in vivo, guinea pig; settings: for inhibition of cough: inhaled one hour before 400 mM citric acid challenge, versus vehicle group; for Cough Count: total cough count of each individual animal, inhaled, one hour before citric acid
Protocol: Dunkin Hartley Guinea pigs were used in this study (male and female). On Day 0 all animals were sensitized with an intraperitoneal and subcutaneous injection of 50 mg chicken egg albumin (ovalbumin). Animals were administered 1 mL of a 50 mg/mL ovalbumin in 0.9% w/v saline solution via the intraperitoneal route and 0.5 mL of the same solution into 2 separate subcutaneous sites (1 mL in total divided between the left and right flank). All animals were administered a single intraperitoneal dose of pyrilamine (15 mg/kg) at a dose volume of 1 mL/kg approximately 30 minutes prior to ovalbumin challenge on Day 14 to inhibit histamine-induced bronchospasm. On Day 14, animals were challenged with aerosolised ovalbumin in 0.9% w/v saline (3 mg/mL) for 15 min.
Animals were placed in groups in an acrylic box. Then 8 mL of ovalbumin in saline was placed in each of two jet nebulisers (Sidestream®). Compressed air was passed through each nebuliser at approximately 6 L/min and the output of the nebulisers passed into the box containing the animals. On Day 15, approximately 24 hours after the inflammatory challenge with ovalbumin, animals were dosed with either vehicle, compound 1, or compound 2 by inhalation. One hour following the end of vehicle, compound 1, or compound 2 administration on Day 15, animals were placed into a whole body plethysmograph connected to a Buxco Finepointe system. All animals were then exposed to nebulized 400 mM citric acid for 7 minutes via an Aeroneb® nebuliser.
Cough counts and respiratory parameters (respiratory rate, tidal volume, minute volume and Penh) were recorded throughout the exposure period and for 10 minutes following the end of nebulization period.

Nav1.5 sodium channels = target: T2, Nav1.5 sodium channels (Homo sapiens, UniProt Q14524); assay: Thallium flux assay, extracellular block of sodium channel in HEK293 cells; assay type: cell-based; settings: HEK cells
T2 construct: expressed in transfected cells
T2 sequence (Q14524 whole entry): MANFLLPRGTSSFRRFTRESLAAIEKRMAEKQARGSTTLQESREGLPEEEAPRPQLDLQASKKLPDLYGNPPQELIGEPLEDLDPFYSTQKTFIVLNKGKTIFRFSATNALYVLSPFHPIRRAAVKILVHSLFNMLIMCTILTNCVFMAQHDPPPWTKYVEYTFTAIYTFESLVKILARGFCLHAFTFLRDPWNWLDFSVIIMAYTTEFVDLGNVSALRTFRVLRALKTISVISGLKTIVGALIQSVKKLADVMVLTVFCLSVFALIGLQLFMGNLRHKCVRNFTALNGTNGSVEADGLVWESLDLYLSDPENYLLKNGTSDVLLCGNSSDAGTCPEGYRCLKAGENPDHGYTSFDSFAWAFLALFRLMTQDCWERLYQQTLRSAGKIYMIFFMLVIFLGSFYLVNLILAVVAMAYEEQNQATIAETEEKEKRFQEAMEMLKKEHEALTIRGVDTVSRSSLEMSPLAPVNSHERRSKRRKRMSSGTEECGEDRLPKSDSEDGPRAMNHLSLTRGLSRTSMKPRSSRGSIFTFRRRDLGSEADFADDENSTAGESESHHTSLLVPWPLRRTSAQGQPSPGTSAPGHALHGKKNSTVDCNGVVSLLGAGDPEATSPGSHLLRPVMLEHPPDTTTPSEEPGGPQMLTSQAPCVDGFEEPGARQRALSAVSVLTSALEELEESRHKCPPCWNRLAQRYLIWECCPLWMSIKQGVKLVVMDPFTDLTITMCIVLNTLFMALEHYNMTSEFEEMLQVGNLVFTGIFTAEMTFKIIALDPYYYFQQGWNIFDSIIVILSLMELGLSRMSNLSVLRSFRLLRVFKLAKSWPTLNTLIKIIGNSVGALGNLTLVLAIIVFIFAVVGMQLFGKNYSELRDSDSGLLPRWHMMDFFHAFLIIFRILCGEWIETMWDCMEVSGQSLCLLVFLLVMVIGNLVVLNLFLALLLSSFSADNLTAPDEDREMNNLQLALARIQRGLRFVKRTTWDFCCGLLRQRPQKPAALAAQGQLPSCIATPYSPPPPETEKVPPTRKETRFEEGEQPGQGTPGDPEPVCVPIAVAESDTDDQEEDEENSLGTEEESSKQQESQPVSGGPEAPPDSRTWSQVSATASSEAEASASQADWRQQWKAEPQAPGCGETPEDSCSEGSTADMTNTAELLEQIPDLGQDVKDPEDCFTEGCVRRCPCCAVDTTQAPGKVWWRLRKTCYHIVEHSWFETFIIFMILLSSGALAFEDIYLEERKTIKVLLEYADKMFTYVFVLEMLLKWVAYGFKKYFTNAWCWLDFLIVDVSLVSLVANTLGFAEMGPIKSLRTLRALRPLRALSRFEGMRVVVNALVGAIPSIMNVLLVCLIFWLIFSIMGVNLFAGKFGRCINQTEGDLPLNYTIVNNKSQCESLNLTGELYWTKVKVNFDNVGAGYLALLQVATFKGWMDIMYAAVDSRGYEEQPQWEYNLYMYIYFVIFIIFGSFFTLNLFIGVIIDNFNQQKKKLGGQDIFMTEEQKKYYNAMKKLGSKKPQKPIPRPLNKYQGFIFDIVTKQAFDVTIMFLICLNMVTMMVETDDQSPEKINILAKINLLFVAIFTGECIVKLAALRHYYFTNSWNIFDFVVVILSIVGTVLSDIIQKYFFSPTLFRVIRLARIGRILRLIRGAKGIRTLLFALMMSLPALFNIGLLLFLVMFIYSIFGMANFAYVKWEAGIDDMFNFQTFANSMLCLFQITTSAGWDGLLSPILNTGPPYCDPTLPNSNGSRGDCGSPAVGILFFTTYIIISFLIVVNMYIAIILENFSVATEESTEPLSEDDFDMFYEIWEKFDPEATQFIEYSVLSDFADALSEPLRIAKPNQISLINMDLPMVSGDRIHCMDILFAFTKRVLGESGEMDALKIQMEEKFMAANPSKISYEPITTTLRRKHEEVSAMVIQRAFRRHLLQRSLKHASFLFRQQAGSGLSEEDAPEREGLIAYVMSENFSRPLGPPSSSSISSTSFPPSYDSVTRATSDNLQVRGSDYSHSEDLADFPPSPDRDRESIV
Protocol: (§1) Charged sodium channel blockers were tested for extracellular block of voltage-gated sodium channels in a thallium flux assay. Briefly, human embryonic kidney (HEK293) cells stably expressing either the Nav1.5 or Nav1.7 sodium channels were plated in 384 well plates. After overnight culture at 37° C., the cell culture medium was replaced the thallium-sensitive FluxOR dye (FluxOR assay kit, Thermo Fisher). Following a 60 minute incubation at room temperature, the dye-loading solution was replaced with assay buffer and the plates were loaded into a FDSS 7000EX multi-well plate reader (Hamamatsu). Dye fluorescence was measured using Fluo-4 filters (excitation 470 nm, emission 540 nm) at 1 Hz. Baseline fluorescence was measured for 30 s, followed by the addition of 15 μL/well of charged sodium channel blocker compounds. 10 minutes after compound addition, the cells were stimulated with a Tl^+ stimulus buffer and fluorescence measured. Tetraethylammonium (TEA) was used to block Kv channels and veratridine to block Nav channel inactivation. The fluorescence data was normalized with respect to no veratridine stimulus buffer control in order to isolate and measure the Nav channel component of the thallium flux.

Nav1.7 sodium channels = target: T3, Nav1.7 sodium channels (Homo sapiens, UniProt Q15858); assay: as above; assay type: cell-based
T3 construct: expressed in transfected cells
T3 sequence (Q15858 whole entry): as the sequence (Q15858 whole entry) above
Protocol: as §1

[2] = system: endogenous Nav currents in TRPV1 expressing DRG neurons; assay: Patch clamp of sodium currents in DRG neurons after pretreatment with capsaicin + blocker; assay type: cell-based, mouse; settings: 100 micromolar with 300 nM capsaicin for 30 minutes, then washed off
Protocol: Charged sodium channel blockers were tested for intracellular block of voltage-gated sodium currents after entry through activated TRPV1 channels in dissociated mouse dorsal root ganglia (DRG) neurons in vitro. DRG neurons from 8-week-old C57/B16 mice were removed and placed in DMEM containing 1% penicillin-streptomycin (Sigma), then treated for 90 minutes with 5 mg/mL collagenase, 1 mg/mL Dispase II (Roche). Cells were triturated in the presence of DNase I […] (50 U), centrifuged through 10% BSA (Sigma), resuspended in 1 mL of Neurobasal medium (Sigma)+1X B27 supplement (Thermo Fisher) and 1% penicillin-streptomycin, and plated onto 35-mm tissue culture dishes (Becton Dickinson) coated with 20 μg/mL laminin, at 8,000-9,000 cells per dish. Cultures were incubated at 37° C. under 5% CO2. Recordings were made at room temperature within 24 hours of plating. The DRG neurons were treated with 300 nM capsaicin alone or 300 nM capsaicin+100 μM charged sodium channel blocker in external solution for 30 minutes, after which the blocker was washed off with fresh external solution. Whole-cell voltage-clamp recordings of sodium currents were performed in small diameter DRG neurons and then the expression of TRPV1 measured by perfusion of 1 μM capsaicin. […]

## CCCC(C(=O)Nc1c(C)cccc1C)[N+]1(CC)CCCCC1 (centres unmarked) [Compound 2, 1-(1-((2,6-dimethylphenyl)amino)-1-oxopentan-2-yl)-1-ethylpiperidin-1-ium]
Human Nav1.7 channels
  sodium current remaining after use-dependent block, % of the initial value: about 14%
[1]
  inhibition of cough: 65%
  Cough Count: 8 and 0 (5×) and 2 (2×) and 13 and 11 and 6 and 1

## CCC[N+]1(C(CC)C(=O)Nc2c(C)cccc2C)CCCCC1 (centres unmarked) [Compound 1, 1-(1-(2,6-dimethylphenylamino)-1-oxobutan-2-yl)-1-propylpiperidinium chloride]
Nav1.5 sodium channels; doses of up to 1 mM, applied extracellularly
  extracellular block of Nav1.5: did not exhibit significant extracellular block
Nav1.5 sodium channels; thallium flux, FIG. 3
  extracellular concentration at which dose dependent block of Nav1.5 starts: ≥ 10 millimolar
Nav1.7 sodium channels; Nav1.5 versus Nav1.7, thallium flux
  Nav subtype selectivity: did not display any Nav subtype selectivity
Nav1.7 sodium channels; doses of up to 1 mM, applied extracellularly, HEK cells
  extracellular block of Nav1.7: did not exhibit significant extracellular block
Nav1.7 sodium channels; thallium flux, HEK cells, FIG. 4
  extracellular concentration at which dose dependent block of Nav1.7 starts: ≥ 10 millimolar
Human Nav1.7 channels
  sodium current remaining after use-dependent block, % of the initial value: about 15%
[2]
  sodium currents in DRG neurons versus capsaicin alone: considerably smaller
[1]
  inhibition of cough: 81%
  Cough Count: 4 (2×) and 0 (7×) and 2 and 7 and 6

## CC[N+](CC)(CC)CC(=O)Nc1c(C)cccc1C [QX-314, reference compound]
Human Nav1.7 channels
  sodium current remaining after use-dependent block, % of the initial value: about 62%
[2]
  sodium currents in DRG neurons versus capsaicin alone: robust block
